Earlier results, collected in US12064400B1 (priority 2022, dated 2024).

Assays:
[1] = in vivo
[2] = in vivo; remark: listed apart in the source

| Compound | time in which a human body may absorb peak levels [1] | higher risk for developing a bleed when taking naproxen [2] | people in whom common and serious side effects may occur [2] |
| --- | --- | --- | --- |
| COc1ccc2cc([C@H](C)C(=O)O)ccc2c1 [naproxen sodium] | one to two |  |  |
| COc1ccc2cc([C@H](C)C(=O)O)ccc2c1 [naproxen] | two to four | ten | three to nine |
